Assay [1] relates to MDA-MB-231 cells. Kind of assay: MDA-MB-231 proliferation assay. The class given is cell-based. Conditions: Homo sapiens, 72 hours, YO-PRO-1 readout. An outline of the steps: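 Cells seeded at 750/well in DMEM with 10% FBS, treated 72 h at 37 °C, 0.5% DMSO final. Cell number read by YO-PRO-1 fluorescence (485/530 nm), normalised to DMSO (100%) and time-of-addition cells (0%); 4-parameter logistic fit with maximum fixed at 100%.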

The target in assay [2] is T1, recombinant human CLK3 (Homo sapiens, UniProt P49761).
T1 construct: purchased Thermo Fisher Scientific PV3826
Kind of assay: CLK3 kinase assay (LANCE Ultra). Conditions: 0.5 nM CLK3, 300 μM ATP, 3 hours at 30° C. It is filed as biochemical. In outline: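 TR-FRET (LANCE Ultra) read-out of phospho-CREBtide after a 3 h, 30 °C reaction containing 300 μM ATP, 50 nM ULight-CREBtide and 0.5 nM recombinant human CLK3, compounds in 1% DMSO.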

T1 sequence (P49761 whole entry): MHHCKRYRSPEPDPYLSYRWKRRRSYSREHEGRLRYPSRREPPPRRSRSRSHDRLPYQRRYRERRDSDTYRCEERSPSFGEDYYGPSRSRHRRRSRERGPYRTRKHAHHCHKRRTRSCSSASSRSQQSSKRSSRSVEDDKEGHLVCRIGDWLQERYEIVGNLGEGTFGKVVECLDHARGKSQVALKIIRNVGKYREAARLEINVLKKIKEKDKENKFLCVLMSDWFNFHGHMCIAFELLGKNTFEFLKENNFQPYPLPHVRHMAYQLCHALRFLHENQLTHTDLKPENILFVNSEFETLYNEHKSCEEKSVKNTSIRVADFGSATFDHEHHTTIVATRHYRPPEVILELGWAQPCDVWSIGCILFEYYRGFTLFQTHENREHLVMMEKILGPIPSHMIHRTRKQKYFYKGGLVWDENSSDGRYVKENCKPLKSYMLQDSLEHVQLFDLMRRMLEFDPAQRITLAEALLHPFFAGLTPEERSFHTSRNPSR

As for `CC1(C)/C(=N/OCCOCC(F)(F)F)c2cc(O[C@H]3CC[C@@H](N)CC3)ccc2-c2ncnc(N)c21` [Example 112, (6Z)-8-(cis-4-aminocyclohexoxy)-5,5-dimethyl-6-[2-(2,2,2-trifluoroethoxy)ethoxyimino]benzo[h]quinazolin-4-amine], in assay [1], the GI50 came out at 66.2 nM. Further, the concentration for half-maximal inhibition (IC50) in assay [2] amounted to 8.8 nM.

For the compound `CO/N=C1\c2cc(O[C@H]3CC[C@H](N)CC3)sc2-c2ncnc(N)c2C1(C)C` [Example 36, (6Z)-8-(trans-4-aminocyclohexoxy)-6-methoxyimino-5,5-dimethyl-thieno[3,2-h]quinazolin-4-amine], the GI50 in assay [1] was 1150 nM. Moreover, the IC50 in assay [2] came to 56.4 nM.

Consider `CO/N=C1\c2cc(OC)cc(F)c2-c2ncnc(N)c2C1(C)C` [Example 77, (6Z)-10-fluoro-8-methoxy-6-methoxyimino-5,5-dimethyl-benzo[h]quinazolin-4-amine], for which the GI50 in assay [1] was above 2000 nM. In assay [2], the half-inhibitory concentration (IC50) turned out to be 84.8 nM.

Consider `COC(=O)CCO/N=C1\c2cc(O[C@H]3CC[C@H](N)CC3)ccc2-c2ncnc(N)c2C1(C)C` [Example 14, methyl 3-[(Z)-[4-amino-8-(trans-4-aminocyclohexoxy)-5,5-dimethyl-benzo[h]quinazolin-6-ylidene]amino]oxypropanoate], for which the 50% growth inhibitory concentration (GI50) in assay [1] stood at 597 nM. In addition, in assay [2], the IC50 came out at 23.9 nM.

For `CCOC(=O)CCO/N=C1\c2cc(O[C@H]3CC[C@H](N)CC3)ccc2-c2ncnc(N)c2C1(C)C` [Example 23, ethyl 3-[(Z)-[4-amino-8-(trans-4-aminocyclohexoxy)-5,5-dimethyl-benzo[h]quinazolin-6-ylidene]amino]oxypropanoate], in assay [1], the 50% growth inhibitory concentration (GI50) is 647 nM. For the same compound, in assay [2], the 50% inhibitory concentration (IC50) stood at 26.5 nM.

With `CC1(C)/C(=N/OCCCOCc2ccccc2)c2cc(O[C@H]3CC[C@H](N)CC3)ccc2-c2ncnc(N)c21` [Example 26, (6Z)-8-(trans-4-aminocyclohexoxy)-6-(3-benzyloxypropoxyimino)-5,5-dimethyl-benzo[h]quinazolin-4-amine], the 50% growth inhibitory concentration (GI50) in assay [1] is 1360 nM. Also, the IC50 in assay [2] turned out to be 42.6 nM.

For `C=C(c1ccc2c(c1)/C(=N/OC)C(C)(C)c1c(N)ncnc1-2)[C@H]1CC[C@H](N)CC1` [Example 47, (6E)-8-[1-(trans-4-aminocyclohexyl)vinyl]-6-methoxyimino-5,5-dimethyl-benzo[h]quinazolin-4-amine], in assay [1], the GI50 stood at 443 nM. Further, in assay [2], the IC50 came out at 77.3 nM.

Turning to `CC1(C)/C(=N\OCCC#N)c2cc(O[C@H]3CC[C@H](N)CC3)ccc2-c2ncnc(N)c21` [Example 60, 3-[(E)-[4-amino-8-(trans-4-aminocyclohexoxy)-5,5-dimethyl-benzo[h]quinazolin-6-ylidene]amino]oxypropanenitrile], in assay [1], the concentration for 50% growth inhibition (GI50) was above 2000 nM. In addition, the IC50 in assay [2] stood at 116 nM.

In the case of `COc1ccc2c(c1)/C(=N\O[C@H]1CC[C@H](N)CC1)C(C)(C)c1c(N)ncnc1-2` [Example 10, (6Z)-6-(trans-4-aminocyclohexoxy)imino-8-methoxy-5,5-dimethyl-benzo[h]quinazolin-4-amine], in assay [1], the GI50 is above 2000 nM. Also, the 50% inhibitory concentration (IC50) in assay [2] came out at 75.8 nM.

As for `Nc1ncnc2c1C1(CCCC1)/C(=N/O)c1cc(O[C@H]3CC[C@@H](N)CC3)ccc1-2` [Example 104, 4-amino-8-(cis-4-minocyclohexoxy)spiro[benzo[h]quinazoline-5,1′-cyclopentane]-6-one oxime], the GI50 in assay [1] is 41.3 nM. Also, the IC50 in assay [2] stood at 10.4 nM.

As for `CC1(C)/C(=N/OCCN2CCCC2)c2cc(O[C@H]3CC[C@H](N)CC3)ccc2-c2ncnc(N)c21` [Example 28, (6Z)-8-(trans-4-aminocyclohexoxy)-5,5-dimethyl-6-(2-pyrrolidin-1-ylethoxyimino)benzo[h]quinazolin-4-amine], the 50% growth inhibitory concentration (GI50) in assay [1] is above 2000 nM. Also, the half-inhibitory concentration (IC50) in assay [2] is 279 nM.

As for `CC1(C)/C(=N/OCCCO)c2cc(O[C@H]3CC[C@H](N)CC3)ccc2-c2ncnc(N)c21` [Example 15, 3-[(Z)-[4-amino-8-(trans-4-aminocyclohexoxy)-5,5-dimethyl-benzo[h]quinazolin-6-ylidene]amino]oxypropan-1-ol], the 50% growth inhibitory concentration (GI50) in assay [1] came out at 714 nM. For the same compound, in assay [2], the half-maximal inhibitory concentration (IC50) was found to be 29.8 nM.

`COCCO/N=C1\c2cc(N[C@H]3CC[C@H](N)CC3)ccc2-c2ncnc(N)c2C1(C)C` [Example 95, (6Z)—N8-(trans-4-aminocyclohexyl)-6-(2-methoxyethoxyimino)-5,5-dimethyl-benzo[h]quinazoline-4,8-diamine]: in assay [1], the 50% growth inhibitory concentration (GI50) turned out to be 1040 nM. Further, in assay [2], the half-inhibitory concentration (IC50) came out at 62.5 nM.

For the compound `CC1(C)/C(=N/O)c2cc(O[C@H]3CC[C@H](N)CC3)ccc2-c2ncnc(N)c21` [Example 2, (6Z)-4-amino-8-(trans-4-aminocyclohexoxy)-5,5-dimethyl-benzo[h]quinazolin-6-one oxime], the GI50 in assay [1] was 742 nM. Besides, the IC50 in assay [2] came out at 16.6 nM.

In the case of `COc1ccc2c(c1)/C(=N\OC[C@@H]1CN(C)C(=O)O1)C(C)(C)c1c(N)ncnc1-2` [Example 50, (5S)-5-[[(Z)-(4-amino-8-methoxy-5,5-dimethyl-benzo[h]quinazolin-6-ylidene)amino]oxymethyl]-3-methyl-oxazolidin-2-one], the GI50 in assay [1] came out at 761 nM. Further, in assay [2], the half-inhibitory concentration (IC50) was below 1.5 nM.

For the compound `CC(C)CO/N=C1\c2cc(O[C@H]3CC[C@H](N)CC3)ccc2-c2ncnc(N)c2C1(C)C` [Example 30, (6Z)-8-(trans-4-aminocyclohexoxy)-6-isobutoxyimino-5,5-dimethyl-benzo[h]quinazolin-4-amine], the concentration for 50% growth inhibition (GI50) in assay [1] is 1560 nM. The IC50 in assay [2] came to 93.9 nM.

For the compound `COc1ccc2c(c1)/C(=N\OC[C@@H]1CNC(=O)C1)C(C)(C)c1c(N)ncnc1-2` [Example 72, (4S)-4-[[(Z)-(4-amino-8-methoxy-5,5-dimethyl-benzo[h]quinazolin-6-ylidene)amino]oxymethyl]pyrrolidin-2-one], the concentration for 50% growth inhibition (GI50) in assay [1] was above 2000 nM. The IC50 in assay [2] stood at 79.3 nM.

`CC1(C)/C(=N/OCCC#N)c2cc(O[C@H]3CC[C@H](N)CC3)ccc2-c2ncnc(N)c21` [Example 55, 3-[(Z)-[4-amino-8-(trans-4-aminocyclohexoxy)-5,5-dimethyl-benzo[h]quinazolin-6-ylidene]amino]oxypropanenitrile]: in assay [1], the 50% growth inhibitory concentration (GI50) came to 169 nM. Also, in assay [2], the IC50 is 15.6 nM.

With `CC1(C)/C(=N/OCCC(F)(F)F)c2cc(O[C@H]3CC[C@@H](N)CC3)ccc2-c2ncnc(N)c21` [Example 116, (6Z)-8-(cis-4-aminocyclohexoxy)-5,5-dimethyl-6-(3,3,3-trifluoropropoxyimino)benzo[h]quinazoline-4-amine], in assay [1], the concentration for 50% growth inhibition (GI50) stood at 71.7 nM. The 50% inhibitory concentration (IC50) in assay [2] was 28.9 nM.

Turning to `CC1(C)/C(=N\O)c2cc(O[C@H]3CC[C@H](N)CC3)ccc2-c2ncnc(N)c21` [Example 46, (6E)-4-amino-8-(trans-4-aminocyclohexoxy)-5,5-dimethyl-benzo[h]quinazolin-6-one oxime], the GI50 in assay [1] is 470 nM. Besides, in assay [2], the half-maximal inhibitory concentration (IC50) was 12.7 nM.

As for `COc1ccc2c(c1)/C(=N\OC[C@H]1CC(=O)N(C)C1)C(C)(C)c1c(N)ncnc1-2` [Example 76, (4S)-4-[[(Z)-(4-amino-8-methoxy-5,5-dimethyl-benzo[h]quinazolin-6-ylidene)amino]oxymethyl]-1-methyl-pyrrolidin-2-one], the GI50 in assay [1] was above 2000 nM. Also, in assay [2], the IC50 is below 41 nM.

For `CC1(C)/C(=N/OC[C@@H]2CNC(=O)O2)c2cc(OCCO)ccc2-c2ncnc(N)c21` [Example 94, (5S)-5-[[(Z)-[4-amino-8-(2-hydroxyethoxy)-5,5-dimethyl-benzo[h]quinazolin-6-ylidene]amino]oxymethyl]oxazolidin-2-one], the GI50 in assay [1] is above 2000 nM. Moreover, the IC50 in assay [2] was determined as 18.6 nM.

Consider `CC1(C)/C(=N/OCCc2ccccc2)c2cc(O[C@H]3CC[C@@H](N)CC3)ccc2-c2ncnc(N)c21` [Example 106, (6Z)-8-(cis-4-aminocyclohexoxy)-5,5-dimethyl-6-(2-phenylethoxyimino)benzo[h]quinazoline-4-amine], for which, in assay [1], the GI50 is 307 nM. Besides, the IC50 in assay [2] worked out at 23.4 nM.

Regarding `COc1ccc2c(c1)/C(=N\OCCN)C(C)(C)c1c(N)ncnc1-2` [Example 58, (6Z)-6-(2-aminoethoxyimino)-8-methoxy-5,5-dimethyl-benzo[h]quinazolin-4-amine], the GI50 in assay [1] is above 2000 nM. Further, in assay [2], the half-inhibitory concentration (IC50) was found to be 90.4 nM.

Take `CC1(C)/C(=N/OCC2CNC(=O)O2)c2cc(O[C@H]3CC[C@H](N)CC3)ccc2-c2ncnc(N)c21` (stereo partly drawn) [Example 34, 5-[[(Z)-[4-amino-8-(trans-4-aminocyclohexoxy)-5,5-dimethyl-benzo[h]quinazolin-6-ylidene]amino]oxymethyl]oxazolidin-2-one]: the GI50 in assay [1] was 620 nM. The IC50 in assay [2] was determined as 10.9 nM.

Turning to `COCCO/N=C1\c2cc(N[C@H]3CC[C@@H](N)CC3)ccc2-c2ncnc(N)c2C1(C)C` [Example 96, (6Z)—N8-(cis-4-aminocyclohexyl)-6-(2-methoxyethoxyimino)-5,5-dimethyl-benzo[h]quinazoline-4,8-diamine], the 50% growth inhibitory concentration (GI50) in assay [1] came to 670 nM. Besides, the IC50 in assay [2] was found to be 43.6 nM.
